Experimental data reported in US20090005363A1, “Organic Compounds” (priority 2005, published 2009).

Target: mGluR5 (Homo sapiens, UniProt P41594)
Assay: inhibition of the glutamate induced elevation of intracellular Ca2+ concentration
Conditions: inhibition of glutamate induced elevation of intracellular Ca2+ concentration at 10 μM
Excerpt: This can be determined in vitro for example at recombinant human metabotropic glutamate receptors, especially PLC-coupled subtypes thereof such as mGluR5, using different procedures like, for example, measurement of the inhibition of the agonist induced elevation of intracellular Ca^2+ concentration in accordance with L. P. Daggett et al., Neuropharm.

Chain of mGluR5 (P41594 21-1180 isoform P41594-2 limits assumed): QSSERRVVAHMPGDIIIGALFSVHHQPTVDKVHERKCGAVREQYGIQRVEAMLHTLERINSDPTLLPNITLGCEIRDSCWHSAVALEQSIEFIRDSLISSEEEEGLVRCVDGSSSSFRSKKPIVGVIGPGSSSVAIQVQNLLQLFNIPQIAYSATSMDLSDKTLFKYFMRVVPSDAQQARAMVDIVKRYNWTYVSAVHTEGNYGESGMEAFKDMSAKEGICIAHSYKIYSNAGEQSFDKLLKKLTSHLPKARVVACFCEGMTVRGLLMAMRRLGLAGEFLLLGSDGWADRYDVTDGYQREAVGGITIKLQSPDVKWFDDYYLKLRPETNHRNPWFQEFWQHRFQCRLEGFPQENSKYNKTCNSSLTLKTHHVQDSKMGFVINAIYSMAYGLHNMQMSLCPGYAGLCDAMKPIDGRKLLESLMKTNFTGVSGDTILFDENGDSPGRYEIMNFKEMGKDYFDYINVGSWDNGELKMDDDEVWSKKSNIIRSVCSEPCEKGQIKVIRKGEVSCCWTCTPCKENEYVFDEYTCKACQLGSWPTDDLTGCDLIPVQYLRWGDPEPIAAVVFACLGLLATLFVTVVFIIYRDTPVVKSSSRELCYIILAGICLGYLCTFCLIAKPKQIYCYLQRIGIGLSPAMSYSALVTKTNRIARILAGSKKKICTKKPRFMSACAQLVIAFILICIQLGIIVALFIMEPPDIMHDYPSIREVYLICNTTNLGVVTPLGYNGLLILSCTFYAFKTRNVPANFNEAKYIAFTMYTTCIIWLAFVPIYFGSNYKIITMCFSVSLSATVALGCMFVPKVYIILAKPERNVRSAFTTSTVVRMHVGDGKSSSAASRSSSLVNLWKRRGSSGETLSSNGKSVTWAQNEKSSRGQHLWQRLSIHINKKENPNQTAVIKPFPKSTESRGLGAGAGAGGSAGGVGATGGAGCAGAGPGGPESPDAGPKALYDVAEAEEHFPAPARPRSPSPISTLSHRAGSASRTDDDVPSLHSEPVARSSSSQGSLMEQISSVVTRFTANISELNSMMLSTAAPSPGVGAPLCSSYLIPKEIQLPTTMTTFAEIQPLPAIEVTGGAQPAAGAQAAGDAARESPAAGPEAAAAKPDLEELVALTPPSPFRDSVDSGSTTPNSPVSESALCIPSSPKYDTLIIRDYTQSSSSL

mGluR5 Activity inh. at 10 μM [%]	SMILES
97	C/C=C\C1CCCCN1C(=O)c1cnc(Nc2ccc(C)nc2)c(Cl)c1 (centres unmarked) [Compound 4.56, [5-Chloro-6-(6-methyl-pyridin-3-ylamino)-pyridin-3-yl]-[((Z)-2-propenyl)-piperidin-1-yl]-methanone]

Same assay, conditions: read-out: mGluR5 Activity inh. at 10 μM [%]

inhibition at 10 µM [%]	SMILES
98	Cc1ccc(Nc2ncc(C(=O)N3CCCCC3c3ccccn3)cc2Cl)cn1 (centres unmarked) [Compound 4.42, [5-Chloro-6-(6-methyl-pyridin-3-ylamino)-pyridin-3-yl]-(3,4,5,6-tetrahydro-2H-[2,2′]bipyridinyl-1-yl)-methanone]
100	Cc1ccc(Nc2ncc(C(=O)N3CCCCC3c3cccnc3)cc2Cl)cn1 (centres unmarked) [Compound 4.43, [5-Chloro-6-(6-methyl-pyridin-3-ylamino)-pyridin-3-yl]-(3,4,5,6-tetrahydro-2H-[2,3′]bipyridinyl-1-yl)-methanone]
99	Cc1ccc(Nc2ncc(C(=O)N3CCCCC3C3CCCO3)cc2Cl)cn1 (centres unmarked) [Compound 4.44, [5-Chloro-6-(6-methyl-pyridin-3-ylamino)-pyridin-3-yl]-[2-(tetrahydro-furan-2-yl)-piperidin-1-yl]-methanone]
94	Cc1ccc(Nc2ncc(C(=O)N3CCCCC3c3ncco3)cc2Cl)cn1 (centres unmarked) [Compound 4.46, [5-Chloro-6-(6-methyl-pyridin-3-ylamino)-pyridin-3-yl]-(2-oxazol-2-yl-piperidin-1-yl)-methanone]
66	Cc1ccc(Nc2ncc(C(=O)N3C(C)(C)CCCC3(C)C)cc2Cl)cn1 [Compound 4.49, [5-Chloro-6-(6-methyl-pyridin-3-ylamino)-pyridin-3-yl]-(2,2,6,6-tetramethyl-piperidin-1-yl)-methanone]
96	CCC[C@@H]1CCC[C@@H](CC)N1C(=O)c1cnc(Nc2ccc(C)nc2)c(Cl)c1 [Compound 4.51, [5-Chloro-6-(6-methyl-pyridin-3-ylamino)-pyridin-3-yl]-((2R,6R)-2-ethyl-6-propyl-piperidin-1-yl)-methanone]
96	C=CC1CCCCN1C(=O)c1cnc(Nc2ccc(C)nc2)c(Cl)c1 (centres unmarked) [Compound 4.55, [5-Chloro-6-(6-methyl-pyridin-3-ylamino)-pyridin-3-yl]-(2-vinyl-piperidin-1-yl)-methanone]
97	CCOCC1CCCCN1C(=O)c1cnc(Nc2ccc(C)nc2)c(Cl)c1 (centres unmarked) [Compound 4.60, [5-Chloro-6-(6-methyl-pyridin-3-ylamino)-pyridin-3-yl]-(2-ethoxymethyl-piperidin-1-yl)-methanone]
99	CCCC1CCC(F)CN1C(=O)c1cnc(Nc2ccc(C)nc2)c(Cl)c1 (centres unmarked) [Compound 4.62, [5-Chloro-6-(6-methyl-pyridin-3-ylamino)-pyridin-3-yl]-(5-fluoro-2-propyl-piperidin-1-yl)-methanone]
100	Cc1ccc(Nc2ncc(C(=O)N3CCCCC3C(F)C(C)F)cc2Cl)cn1 (centres unmarked) [Compound 4.63, [5-Chloro-6-(6-methyl-pyridin-3-ylamino)-pyridin-3-yl]-[2-(1,2-difluoro-propyl)-piperidin-1-yl]-methanone]
99	Cc1ccc(Nc2ncc(C(=O)N3CCCCC3CC(C)F)cc2Cl)cn1 (centres unmarked) [Compound 4.64, [5-Chloro-6-(6-methyl-pyridin-3-ylamino)-pyridin-3-yl]-[2-(2-fluoro-propyl)-piperidin-1-yl]-methanone]
91	CCCC1OCCCCN1C(=O)c1cnc(Nc2ccc(C)nc2)c(Cl)c1 (centres unmarked) [Compound 4.66, [5-Chloro-6-(6-methyl-pyridin-3-ylamino)-pyridin-3-yl]-(2-propyl-[1,3]oxazepan-3-yl)-methanone]
99	CCCC1OCCCN1C(=O)c1cnc(Nc2ccc(C)nc2)c(Cl)c1 (centres unmarked) [Compound 4.68, [5-Chloro-6-(6-methyl-pyridin-3-ylamino)-pyridin-3-yl]-(2-propyl-[1,3]oxazinan-3-yl)-methanone]
99	COCCC1CCCCN1C(=O)c1cnc(Nc2ccc(C)nc2)c(Cl)c1 (centres unmarked) [Compound 4.71, [5-Chloro-6-(6-methyl-pyridin-3-ylamino)-pyridin-3-yl]-[2-(2-methoxy-ethyl)-piperidin-1-yl]-methanone]
97	Cc1ccc(Nc2ncc(C(=O)N3CCCC3c3ccccc3)cc2Cl)cn1 (centres unmarked) [Compound 4.72, [5-Chloro-6-(6-methyl-pyridin-3-ylamino)-pyridin-3-yl]-(2-phenyl-pyrrolidin-1-yl)-methanone]
92	CCO[C@@H]1CCCN1C(=O)c1cnc(Nc2ccc(C)nc2)c(Cl)c1 [Compound 4.74, [5-Chloro-6-(6-methyl-pyridin-3-ylamino)-pyridin-3-yl]-((R)-2-ethoxy-pyrrolidin-1-yl)-methanone]
96	Cc1ccc(Nc2ncc(C(=O)N3CCCC3c3ccc(C)s3)cc2Cl)cn1 (centres unmarked) [Compound 4.75, [5-Chloro-6-(6-methyl-pyridin-3-ylamino)-pyridin-3-yl]-[2-(5-methyl-thiophen-2-yl)-pyrrolidin-1-yl]-methanone]
100	CCCC1COCCN1C(=O)c1cnc(Nc2ccc(C)nc2)c(Cl)c1 (centres unmarked) [Compound 4.77, [5-Chloro-6-(6-methyl-pyridin-3-ylamino)-pyridin-3-yl]-(3-propyl-morpholin-4-yl)-methanone]
87	O=C(c1cnc(Nc2ccc(Cl)cc2)nc1)N1CCCCCC1 [Compound 5.3, Azepan-1-yl-[2-(4-chloro-phenylamino)-pyrimidin-5-yl]-methanone]

Second part, the molecule before the results:

SMILES	inhibition at 10 µM [%]
Cc1ccc(Nc2ncc(C(=O)N3CCCCC3c3ccc(C)o3)cc2Cl)cn1 (centres unmarked) [Compound 4.45, [5-Chloro-6-(6-methyl-pyridin-3-ylamino)-pyridin-3-yl]-[2-(5-methyl-furan-2-yl)-piperidin-1-yl]-methanone]	90
Cc1ccc(Nc2ncc(C(=O)N3CCCCC3CCCl)cc2Cl)cn1 (centres unmarked) [Compound 4.47, [2-(2-Chloro-ethyl)-piperidin-1-yl]-[5-chloro-6-(6-methyl-pyridin-3-ylamino)-pyridin-3-yl]-methanone]	97
Cc1ccc(Nc2ncc(C(=O)N3C(C)CCCC3C)cc2Cl)cn1 (centres unmarked) [Compound 4.48, [5-Chloro-6-(6-methyl-pyridin-3-ylamino)-pyridin-3-yl]-(2,6-dimethyl-piperidin-1-yl)-methanone]	99
CCCC1CCCC(C)N1C(=O)c1cnc(Nc2ccc(C)nc2)c(Cl)c1 (centres unmarked) [Compound 4.50, [5-Chloro-6-(6-methyl-pyridin-3-ylamino)-pyridin-3-yl]-(2-methyl-6-propyl-piperidin-1-yl)-methanone]	98
CCCC1CCC(C)CN1C(=O)c1cnc(Nc2ccc(C)nc2)c(Cl)c1 (centres unmarked) [Compound 4.52, [5-Chloro-6-(6-methyl-pyridin-3-ylamino)-pyridin-3-yl]-(5-methyl-2-propyl-piperidin-1-yl)-methanone]	96
CC[C@@H]1CCCCN1C(=O)c1cnc(Nc2ccc(Cl)cc2)c(Cl)c1 [Compound 4.54, [5-Chloro-6-(4-chloro-phenylamino)-pyridin-3-yl]-((R)-2-ethyl-piperidin-1-yl)-methanone]	97
CCC=C1CCCN(C(=O)c2cnc(Nc3ccc(C)nc3)c(Cl)c2)C1 [Compound 4.58, [5-Chloro-6-(6-methyl-pyridin-3-ylamino)-pyridin-3-yl]-[3-propylidene-piperidin-1-yl]-methanone]	93
Cc1ccc(Nc2ncc(C(=O)N3CCCCC3CCO)cc2Cl)cn1 (centres unmarked) [Compound 4.61, [5-Chloro-6(6-methyl-pyridin-3-ylamino)-pyridin-3-yl]-[2-(2-hydroxy-ethyl)-piperidin-1-yl]-methanone]	79
CCC1OCCCCN1C(=O)c1cnc(Nc2ccc(C)nc2)c(Cl)c1 (centres unmarked) [Compound 4.65, [5-Chloro-6-(6-methyl-pyridin-3-ylamino)-pyridin-3-yl]-(2-ethyl-[1,3]oxazepan-3-yl)-methanone]	83
CCC(CC)C1OCCCCN1C(=O)c1cnc(Nc2ccc(C)nc2)c(Cl)c1 (centres unmarked) [Compound 4.67, [5-Chloro-6-(6-methyl-pyridin-3-ylamino)-pyridin-3-yl]-[2-(1-ethyl-propyl)-[1,3]oxazepan-3-yl]-methanone]	95
CCC(CC)C1OCCCN1C(=O)c1cnc(Nc2ccc(C)nc2)c(Cl)c1 (centres unmarked) [Compound 4.69, [5-Chloro-6-(6-methyl-pyridin-3-ylamino)-pyridin-3-yl]-[2-(1-ethyl-propyl)-[1,3]oxazinan-3-yl]-methanone]	99
CCCCC1OCCCN1C(=O)c1cnc(Nc2ccc(C)nc2)c(Cl)c1 (centres unmarked) [Compound 4.70, (2-Butyl-[1,3]oxazinan-3-yl)-[5-chloro-6-(6-methyl-pyridin-3-ylamino)-pyridin-3-yl]-methanone]	96
Cc1ccc(Nc2ncc(C(=O)N3CCCC3c3ccccn3)cc2Cl)cn1 (centres unmarked) [Compound 4.73, [5-Chloro-6-(6-methyl-pyridin-3-ylamino)-pyridin-3-yl]-(2-pyridin-2-yl-pyrrolidin-1-yl)-methanone]	72
CCCC1CCCCCN1C(=O)c1cnc(Nc2ccc(C)nc2)c(Cl)c1 (centres unmarked) [Compound 4.76, [5-Chloro-6-(6-methyl-pyridin-3-ylamino)-pyridin-3-yl]-(2-propyl-azepan-1-yl)-methanone]	92
O=C(c1cnc(Nc2ccc(Cl)cc2)c(Cl)c1)N1CCCCCC1 [Compound 5.1, Azepan-1-yl-[5-chloro-6-(4-chloro-phenylamino)-pyridin-3-yl]-methanone]	98
O=C(c1cnc(Nc2ccc(Cl)cc2)nc1)N1CCCCC1 [Compound 5.4, [2-(4-Chloro-phenylamino)-pyrimidin-5-yl]-piperidin-1-yl-methanone]	83
COc1cc(C(=O)N2CCCCCC2)cnc1Nc1ccc(Cl)cc1 [Compound 6.1, Azepan-1-yl-[6-(4-chloro-phenylamino)-5-methoxy-pyridin-3-yl]-methanone]	97
COc1cc(C(=O)N2CCCCC2)cnc1Nc1ccc(Cl)cc1 [Compound 6.3, [6-(4-Chloro-phenylamino)-5-methoxy-pyridin-3-yl]-piperidin-1-yl-methanone]	95
